US20240368668A1, “SUBSTRATES AND BIOMARKERS OF ADAMTS7” (The Broad Institute, Inc., priority 2021, published 2024)
Square brackets hold non-standard residues; d marks the D form. Ends that are not written are not given here. deamidated = deamidated asparagine; Met(O) = CS(=O)CC[C@H](N)C(=O)O

System: mouse ADAMTS7
Assay: TMT10 TAILS N-terminomics, SMC1 experiment (Ad-mADAMTS7 WT vs EQ vs Luc, technical replicates, trypsin digest)
Assay type: cell-based
Conditions: for logFC.mWT.over.mEQ: TAILS neo-N-terminal peptide abundance, log fold change, Ad-mADAMTS7 WT over EQ; for SMC1 logFC.mWT.over.mEQ: TAILS HC Overlap, log fold change mouse ADAMTS7 WT over catalytically inactive EQ
Method in brief: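 Full-length mouse ADAMTS7 (WT or E373Q mutant, C-terminal 3xFLAG) or luciferase was transduced via adenovirus, 50 MOI, into HCA-SMC (SMC1, SMC2) or HUVEC. SMC1: pooled media, technical triplicates 400 ug; SMC2: process triplicates 300 ug; HUVEC: process triplicates 200 ug, bFGF2 10 ng/ml.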

| Substance | logFC.mWT.over.mEQ | SMC1 logFC.mWT.over.mEQ |
| --- | --- | --- |
| CDC37_43 (FQKEKEELDR; listed as Homo sapiens) | 1.88 |  |
| CDH11_467 (HQEAKVPVAIR; listed as Homo sapiens) | 2.06 |  |
| CLEC11A_50 (HLQEALGLPAGR; listed as Homo sapiens) | 1.42 |  |
| COL1A2_80 (QYDGKGVGLGPGPMGLMGPR; listed as Homo sapiens) | 2.36 |  |
| COL1A2_91 (GPMGLMGPR; listed as Homo sapiens) | 1.16 |  |
| COL1A2_113 (FQGPAGEPGEPGQTGPAGAR; listed as Homo sapiens) | 2.27 |  |
| COL1A2_270 (VGNAGPAGPAGPR; listed as Homo sapiens) | 2.82 |  |
| COL1A2_305 (LTGAKGAAGLPGVAGAPGLPGPR; listed as Homo sapiens) | 1.63 |  |
| COL1A2_389 (SAGPPGPPGLR; listed as Homo sapiens) | 0.72 |  |
| COL1A2_425 (ASGPAGVR; listed as Homo sapiens) | 1.34 |  |
| COL1A2_630 (VGTAGPSGPSGLPGER; listed as Homo sapiens) | 1.45 |  |
| COL1A2_681 (VGAPGPAGATGDR; listed as Homo sapiens) | 1.60 |  |
| COL1A2_731 (AAGQPGAKGER; listed as Homo sapiens) | 1.03 |  |
| COL1A2_866 (LLGAPGILGLPGSR; listed as Homo sapiens) | 3.72 |  |
| COL1A2_960 (AGAPGPHGPVGPAGKHGNR; listed as Homo sapiens) | 2.91 |  |
| COL1A2_1028 (LQGLPGIAGHHGDQGAPGSVGPAGPR; listed as Homo sapiens) | 1.79 |  |
| COL1A2_1037 (HHGDQGAPGSVGPAGPR; listed as Homo sapiens) | 3.09 |  |
| COL1A2_1127 (SLRPKDYEVDATLKSLNNQIETLLTPEGSR; listed as Homo sapiens) | 2.68 |  |
| COL4A2_71 (YNGPPGLQGFPGLQGR; listed as Homo sapiens) | 2.14 |  |

| Substance | logFC.mWT.over.mEQ | SMC1 logFC.mWT.over.mEQ |
| --- | --- | --- |
| COL4A2_172 (YALPKEER; listed as Homo sapiens) | 5.21 |  |
| COL5A1_544 (SQAQAILQQAR; listed as Homo sapiens) | 1.08 |  |
| COL8A1_90 (MKEIQPAPR; listed as Homo sapiens) | 1.35 |  |
| COL18A1_1505 (LQPPVVQLHDSNPYPR; listed as Homo sapiens) | 1.42 |  |
| ECM1_43 (YAAPPSPPLSR; listed as Homo sapiens) | 0.68 |  |
| LTBP2_1602 (EAGVHFR; listed as Homo sapiens) | 0.99 |  |
| MAN2A1_51 (LQEKIDHLER; listed as Homo sapiens) | 1.86 |  |
| MAP1B_1065 (LTTPTKQLGAQSPGR; listed as Homo sapiens) | 1.30 |  |
| MAP4_815 (AVASTGPSSR; listed as Homo sapiens) | 1.19 |  |
| MAP4_816 (VASTGPSSR; listed as Homo sapiens) | 1.62 |  |
| MGAT4B_28 (LSGQKGDVVDVYQR; listed as Homo sapiens) | 1.66 |  |
| MMP1_24 (LETQEQDVDLVQKYLEKYYNLKN(deamidated)DGR; listed as Homo sapiens) | 2.31 |  |
| NID2_291 (HSSVPLGR; listed as Homo sapiens) | 4.04 |  |
| NID2_374 (VGGPDLKGQVEPWDER; listed as Homo sapiens) | 4.94 |  |
| NID2_467 (LEDNIGSNTEVFTYNAANKETCEHNHR; listed as Homo sapiens) | 2.66 |  |
| NID2_951 (YAYPGAR; listed as Homo sapiens) | 3.92 |  |
| NUCB1_228 (LKEVWEELDGLDPNR; listed as Homo sapiens) | 1.63 |  |
| NUCB1_317 (FLASTQR; listed as Homo sapiens) | 4.87 |  |
| NUCB1_389 (LQQAVLHMEQR; listed as Homo sapiens) | 2.09 |  |

| Substance | logFC.mWT.over.mEQ | SMC1 logFC.mWT.over.mEQ |
| --- | --- | --- |
| OS9_54 ([code q]SQSSDVVIVSSKYKQR; also: modified N-terminal Gln; listed as Homo sapiens) | 2.81 |  |
| OS9_55 (SQSSDVVIVSSKYKQR; listed as Homo sapiens) | 2.29 |  |
| PAPPA_41 (AAGPATCATR; listed as Homo sapiens) | 3.48 |  |
| PDLIM4_104 (IDPEIQDGSPTTSR; listed as Homo sapiens) | 1.13 |  |
| POLR3G_88 (LFCSHWSHIPGFK; listed as Homo sapiens) | 1.51 |  |
| POSTN_413 (FSDDTLSMDQR; listed as Homo sapiens) | 2.31 |  |
| POSTN_754 (IITGPEIKYTR; listed as Homo sapiens) | 1.68 |  |
| POSTN_790 (FIEGGDGHLFEDEEIKR; listed as Homo sapiens) | 1.18 |  |
| POSTN_807 (LLQGDTPVR; listed as Homo sapiens) | 1.17 |  |
| PPP1R18_295 (LSETLTR; listed as Homo sapiens) | 3.68 |  |
| PSAP_171 (F[Met(O)]ANIPLLLYPQDGPR; listed as Homo sapiens) | 1.03 |  |
| PXDN_1341 (SYQEDKPTKKTR; listed as Homo sapiens) | 5.26 |  |
| PXDN_1393 (QKTITDLR; listed as Homo sapiens) | 4.77 |  |
| SERBP1_56 (QAAAQTNSNAAGKQLR; listed as Homo sapiens) |  | 4.06 |
| SRGN_59 (LLPGESNKIPR; listed as Homo sapiens) |  | 4.33 |
| THBS2_290 (LSENLKR; listed as Homo sapiens) |  | 4.05 |
| VIM_314 (QESTEYR; listed as Homo sapiens) |  | 2.60 |
| VIM_333 (LKGTNESLER; listed as Homo sapiens) |  | 4.39 |
